# US20250161238A1, “NMDAR Antagonists Prevent Ageing and Aging-Associated Conditions and Diseases Through Increasing 20S Proteasome Activity” (priority 2022, published 2025)
# Structures can show the parent of a compound that is named as a salt. Where two headings read alike, the source gives them in different places. Peptide text beside a SMILES is read from it. * marks the point of attachment. Cbz = O=C(OCc1ccccc1)*
# Key:
# [1] = system: Ub-YFP; test: Ub-YFP degredation in Hep3B cells; format: cell-based, human
# Description: This finding was supported by the following experiments; First, a model was developed to find inhibitor or inhibitors for the ubiquitin dependent degredation in the Hep3B cell line. For this purpose Hep3B cell expressing Ub-YFP genome were prepared. Ub-YFP is a system which was used to detect the ubiquitin dependent proteasome activity (26S). It is also known that Ub-YFP is not affected by the ubiquitin-independent protesome system. In further experiments, we tested molecules which are involved in different parts of the ubiquitination processes including PYR41 (Ubiquitin-activating enzyme (E1) inhibitor), NCC697923 (UBE2N E2 ubiquitin-conjugating enzyme inhibitor), SMER3 (ubiquitin ligase E3 inhibitor), SZL-P1-411 (Skp2 E3 ligase inhibitor), SKPIN C1 (Skp2 E3 ligase inhibitor), P005091 (USP7 inhibitor), Vialin A (USP4 and USP5 inhibitor), Spautin A (USP10 and USP13 inhibitor), ML 323 (USP1-UAF1 inhibitor), IU1 (USP14 inhibitor), and Mg132 (protesome inhibitor) for the inhibition of Ub-YFP degredation. […] MG132 was used as the inhibitor of the protesome activity (FIG. 12A). In the next experiment YFP protein amount was investigated in the presence of ketamin, Pyr41, and ketamin and Pyr41 together by western blot in Hep3B cell.
# The Ub-R-YFP open-reading frame was obtained from Ub-R-YFP was a gift from Nico Dantuma (Addgene plasmid #11948). Ub-R-YFP sequence was obtained from the original vector by cutting the plasmid with NheI and NotI enzymes (Thermo Scientific), blunt ended and was cloned into pBSK-clo2D which is cut by EcoRV restriction enzyme (SibEnzyme, E059). Ub-R-YFP was obtained from the pBSK-clo2D vector by cutting with BamHI. pLV-EF1a-IRES-Puro (85132-Addgene) vector was cut by BamHI restriction enzyme and dephospharylated and ligated with Ub-R-YFP. After the orientation construct was determined, pLV-EF1a-IRES-Puro-Ub-R-YFP was reproduced in large volumes using DH5a E. Coli.
# Hek293T cells were transfected with the pLV-EF1a-IRES-Puro-Ub-R-YFP and helper vectors psPAX2 and pMD2.G using Calcium Phosphate Mammalian Transfection Kit (631312-Takara bio). After 48 h supernatants containing Ub-R-YFP lentivirus were collected and target cells were infected under the presence of […] polybrene. After 24 hours, the media of the cells were replaced with media containing […] puromycin for 6 days. Then living cells were combined in a pool. Infected clones were maintained in the presence of 250 ng/ml puromycin.
# [2] = system: p21-GFP fusion protein; test: p21-GFP fusion protein amount in cells; format: cell-based, human
# [3] = target: T1, proteasome (Homo sapiens, UniProt P28072+P28074+Q99436); test: In-Cell Fluorogenic Proteasome Assay, T98G; format: cell-based; parameters: endogenous in cells; host or cells: T98G (A10), digitonin/Tween-permeabilised whole cells; details: whole T98G cell
# T1 sequence (P28074 60-263): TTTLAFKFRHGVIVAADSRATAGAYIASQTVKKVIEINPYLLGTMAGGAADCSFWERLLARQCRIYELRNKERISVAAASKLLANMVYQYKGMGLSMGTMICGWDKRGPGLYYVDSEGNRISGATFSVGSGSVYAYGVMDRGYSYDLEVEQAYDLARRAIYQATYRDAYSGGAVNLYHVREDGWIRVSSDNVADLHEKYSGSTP
# T1 sequence (Q99436 44-277): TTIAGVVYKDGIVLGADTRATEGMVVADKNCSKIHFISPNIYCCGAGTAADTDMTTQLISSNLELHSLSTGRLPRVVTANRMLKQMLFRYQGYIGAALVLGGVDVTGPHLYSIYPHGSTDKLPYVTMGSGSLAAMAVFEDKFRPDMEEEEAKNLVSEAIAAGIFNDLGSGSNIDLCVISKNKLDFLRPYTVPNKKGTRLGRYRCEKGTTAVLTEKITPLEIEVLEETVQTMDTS
# T1 sequence (P28072 1-239): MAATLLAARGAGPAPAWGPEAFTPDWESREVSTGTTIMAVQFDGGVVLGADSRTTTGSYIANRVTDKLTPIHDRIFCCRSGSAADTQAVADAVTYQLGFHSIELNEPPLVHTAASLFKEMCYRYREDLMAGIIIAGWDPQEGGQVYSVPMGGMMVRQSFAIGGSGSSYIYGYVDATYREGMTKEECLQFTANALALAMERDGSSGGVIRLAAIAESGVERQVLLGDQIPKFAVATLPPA
# Description: (§1) For a 96-well plate format, 8×10^3 cells per well were seeded. 24 hours later medium was changed with NMDAR blocker containing medium. Two hours later 100 μl of 2× flourescence cell buffer: (1 ml 1M tris hcl ph: 7.5, 500 μl 1M KCL, 200 μl […], 200 μl 0.1M MgCL2, 50 μl % 0.2 tween 20, 75 μl digitonin 20 mg/ml in DMSO ChemCruz cat no: sc-280675, 10 μl flourescence substrates including Suc-LLVY-AMC, Z-LLE-AMC, and Ac-RLR-AMC Ac-RLR-AMC, 8.1 ml H2O). After incubation at room temperature for a 5 minutes the flourescence of each sample were measured in a flourescence spectrometer (Biotek instrument-Synergy HT).
# [4] = system: mice with GD symptoms; details: A/J, C3H/HeJ, DBA/2J, C57BL6/JolaHsd, CBE 25 mg/kg day, cited from earlier work
# [5] = target: T1, proteasome; test: In-Cell Fluorogenic Proteasome Assay, HepG2; format: cell-based; parameters: endogenous in cells; host or cells: HepG2 (A9), T98G (A10), digitonin/Tween-permeabilised whole cells; details: for trypsin, chemotrypsin and caspase-like proteasome activities: whole HepG2 cell
# Description: as §1
structure (smiles),measurement,setting,value
CCOC(=O)c1ccc(N2NC(=O)/C(=C/c3ccc([N+](=O)[O-])o3)C2=O)cc1 [PYR41],Ub-YFP degredation,[1]; Hep3B expressing Ub-YFP,inhibits
same,YFP protein amount,"[1]; Hep3B, western blot",increase
same,p21-GFP fusion protein / GFP amount,[2],increase
"C[C@]12N[C@H](Cc3ccccc31)c1ccccc12 [MK801, (5S,10R)-(+)-5-Methyl-10,11-dihydro-5H dibenzo [a,d]cyclobepten-5,10-imine maleate]","trypsin, chemotrypsin and caspase-like proteasome activities",[3],increased
same,life span of mice with Gaucher disease symptoms,[4],dramatically extended
same,life span of mice with Gaucher disease symptoms,[4]; listed as MK-801,increase
same,"trypsin, chemotrypsin and caspase-like proteasome activities",[5],increased
CC(C)C[C@@H](C=O)NC(=O)[C@H](CC(C)C)NC(=O)[C@H](CC(C)C)NC(=O)OCc1ccccc1 [Mg132] (Cbz-Leu-Leu-Leu-aldehyde),trypsin activity of proteasome,"[5]; whole cell, HepG2, T98G and Hep3B",did not inhibit
same,chemotrypsin activity of proteasome,"[5]; whole cell, substance alone",inhibits
CN1C(=O)[C@]23CC4=CC=C[C@H](O)[C@H]4N2C(=O)[C@@]1(CO)SS3 [Gliotoxin],chemotrypsin activity of proteasome at low dose of Gliotoxin,"[5]; 5 uM, compared to control",not statistically changed
same,chemotrypsin activity of proteasome at high dose of gliotoxin,"[5]; 25 uM, in the presence of NMDR blockers",inhibited
Cc1cc(C(=O)CN2CCCC2)c(C)n1-c1ccc(F)cc1 [IU1],"trypsin, chemotrypsin and caspase-like proteasome activities",[5],increases
OO [H2O2],GFP signal of p21-GFP,[2],increased the GFP signal dramatically
